According to patent publication US20210330611A1, “THERAPY FOR NEUROLOGICAL DISEASES/DISORDERS” (priority 2020, published 2021):
Structures can show the parent of a compound that is named as a salt. Where two headings read alike, the source gives them in different places.

Tests used:
[1] = tested on: fibrin-induced microglia activation; assay: Image-based assay of fibrin-induced microglia activation (HTS and dose response); type: cell-based, rat; conditions: for inhibition at 10 µM: Rattus norvegicus, Microglia, read-out: Fibrin % inhibition
[2] = tested on: LPS-induced microglia activation; assay: Image-based assay of LPS-induced microglia activation (HTS and dose response); type: cell-based, rat; conditions: for inhibition at 10 µM: Rattus norvegicus, Microglia, read-out: LPS % inhibition
[3] = tested on: fibrin- and LPS-induced microglia activation; assay: cells; type: cell-based, rat
primary rat microglia [4] = assay: Cell toxicity (dead cells, size <150 μm2) in LPS assay
primary rat microglia [5] = assay: Cell toxicity (dead cells, size <150 μm2) in coated fibrin (cFib) assay;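 further: share of dead cells sized under 150 µm2 at 10 µM in fibrin-stimulated microglia HTS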
[6] = primary HTS, 10 μM, fibrin-stimulated primary microglia
[7] = primary HTS, 10 μM, LPS-stimulated primary microglia
[8] = primary HTS, 10 μM, LPS assay, dead cells size <150 μm2
[9] = primary HTS, 10 μM, fibrin assay, dead cells size <150 μm2
[10] = primary microglia HTS, 10 μM, fibrin-stimulated, cell size >800 μm^2 as marker of activation
[11] = primary microglia HTS, 10 μM, LPS-stimulated, cell size >800 μm^2 as marker of activation
[12] = HTS of 1907 compounds, quadrant by fibrin and LPS inhibition
[13] = primary microglia HTS, 10 μM, LPS assay, cell size <150 μm^2 as marker of toxicity
[14] = primary microglia HTS, 10 μM, fibrin assay, cell size <150 μm^2 as marker of toxicity
[15] = primary microglia HTS, fibrin stimulation, increased cell size (>800 μm^2) as marker of activation
[16] = 48 h, primary microglia HTS, LPS stimulation, increased cell size (>800 μm^2) as marker of activation
[17] = quadrant by fibrin and LPS inhibition in HTS of 1907 compounds
[18] = primary microglia HTS, LPS stimulation, decreased size (<150 μm^2) as marker of toxicity
[19] = primary microglia HTS, fibrin stimulation, decreased size (<150 μm^2) as marker of toxicity
[20] = primary microglia HTS, fibrin stimulation, activation = cell size >800 μm2
[21] = 48 h, primary microglia HTS, LPS stimulation, activation = cell size >800 μm2
[22] = primary microglia HTS, LPS stimulation, toxicity = cell size <150 μm2
[23] = primary microglia HTS, fibrin stimulation, toxicity = cell size <150 μm2

Row | Molecule | Quadrant (FIG. 5b) ([3]; primary HTS, 10 μM) | LPS % cell toxicity (primary rat microglia [4]; [8]) | Fibrin % cell toxicity (primary rat microglia [5]; [9]) | Quadrant (FIG. 5b) [3, 17] | inhibition at 10 µM [1, 20] | inhibition at 10 µM [2, 21] | LPS % cell toxicity (primary rat microglia [4]; [22]) | Fibrin % cell toxicity (primary rat microglia [5]; [23]) | other results
1 | C[N+](C)(C)CC(O)CC(=O)O.[Cl-] (centres unmarked) | Q4 | 0% | 1% | – | – | – | – | – | Fibrin % inhibition [1, 6]: −23%; LPS % inhibition [2, 7]: 1%
2 | Tyloxapol | – | – | – | – | – | – | – | – | Fibrin % inhibition [1, 10]: −1%; LPS % inhibition [2, 11]: 17%; Quadrant (FIG. 5b) [3, 12]: Q4; LPS % cell toxicity (primary rat microglia [4]; [13]): 0%; Fibrin % cell toxicity (primary rat microglia [5]; [14]): 1%
3 | CO/N=C(\C(=O)N[C@@H]1C(=O)N2C(C(=O)OC(C)OC(C)=O)=C(COC(N)=O)CS[C@H]12)c1ccco1 (some centres unmarked) [Cefuroxime Axetil] | Q4 | 0% | 1% | – | – | – | – | – | inhibition at 10 µM [1, 6]: 17%; inhibition at 10 µM [2, 7]: 13%
4 | CC(C)(CO)C(O)C(=O)NCCCO (centres unmarked) [Panthenol] | – | – | – | Q4 | – | – | – | – | inhibition at 10 µM [1, 15]: -32%; inhibition at 10 µM [2, 16]: 6%; LPS % cell toxicity (primary rat microglia [4]; [18]): 0%; Fibrin % cell toxicity (primary rat microglia [5]; [19]): 1%
5 | CN1C(=O)CC[C@H]1c1cccnc1 [Cotinine] | Q4 | 1% | 1% | – | – | – | – | – | inhibition at 10 µM [1, 6]: -39%; inhibition at 10 µM [2, 7]: 6%
6 | O=C1O[C@H](CO)[C@@H](O)[C@H](O)[C@H]1O [Gluconolactone] | – | – | – | Q4 | -1% | 17% | 0% | 0% | –
7 | OCCN1C[C@H](O)[C@@H](O)[C@H](O)[C@H]1CO [Miglitol] | – | – | – | Q4 | – | – | – | – | inhibition at 10 µM [1, 15]: -9%; inhibition at 10 µM [2, 16]: 13%; LPS % cell toxicity (primary rat microglia [4]; [18]): 0%; Fibrin % cell toxicity (primary rat microglia [5]; [19]): 0%
8 | COc1ccc(NS(=O)(=O)c2ccc(N)cc2)nn1 [Sulfamethoxypyridazine] | – | – | – | – | – | – | – | – | inhibition at 10 µM [1, 10]: 21%; inhibition at 10 µM [2, 11]: 15%; Quadrant (FIG. 5b) [3, 12]: Q4; LPS % cell toxicity (primary rat microglia [4]; [13]): 0%; Fibrin % cell toxicity (primary rat microglia [5]; [14]): 1%
9 | CC(C)Oc1ccc2c(=O)c(-c3ccccc3)coc2c1 [Ipriflavone] | – | – | – | Q4 | -29% | 7% | 0% | 1% | –
10 | CCCCC(=O)N(Cc1ccc(-c2ccccc2-c2nnn[nH]2)cc1)[C@H](C(=O)O)C(C)C [Valsartan] | – | – | – | – | – | – | – | – | inhibition at 10 µM [1]: -17%; inhibition at 10 µM [2]: 12%; Quadrant (FIG. 5b) [3, 12]: Q4; LPS % cell toxicity (primary rat microglia [4]; [13]): 0%; Fibrin % cell toxicity (primary rat microglia [5]; [14]): 0%
11 | Nc1nc(N)nc(-c2cc(Cl)ccc2Cl)n1 [Irsogladine Maleate] | – | – | – | Q4 | -27% | 14% | 0% | 1% | –
12 | CO/N=C(\C(=O)N[C@@H]1C(=O)N2C(C(=O)O)=C(COC(C)=O)CS[C@H]12)c1csc(N)n1 [Cefotaxime Sodium] | Q4 | 0% | 0% | – | – | – | – | – | Fibrin % inhibition [1, 6]: −1%; LPS % inhibition [2, 7]: 3%
13 | O=C(O)c1cc(O)c(O)c(O)c1 [Gallic Acid] | – | – | – | Q4 | -32% | 10% | 0% | 0% | –
14 | C/C(=C\C(=O)OCCCCCCCCC(=O)O)C[C@@H]1OC[C@H](C[C@@H]2O[C@H]2[C@@H](C)[C@H](C)O)[C@@H](O)[C@H]1O [Mupirocin] | – | – | – | Q4 | – | – | – | – | inhibition at 10 µM [1, 15]: 11%; inhibition at 10 µM [2, 16]: 20%; LPS % cell toxicity (primary rat microglia [4]; [18]): 0%; Fibrin % cell toxicity (primary rat microglia [5]; [19]): 1%
15 | CCCCNc1cc(C(=O)O)cc(S(N)(=O)=O)c1Oc1ccccc1 [Bumetanide] | Q4 | 1% | 1% | – | – | – | – | – | inhibition at 10 µM [1, 6]: -3%; inhibition at 10 µM [2, 7]: 18%
16 | C=C(C)[C@H]1CN[C@H](C(=O)O)[C@H]1CC(=O)O [Kainic Acid] | – | – | – | Q4 | -77% | 14% | 0% | 0% | –
